Assay: Tofacitinib stability in PEG-based ointment formulations after storage at 40° C.
Type: physicochemical
From the text: Topical formulations contain 3-((3R,4R)-4-methyl-3-[methyl-(7H-pyrrolo[2,3-d]pyrimidin-4-yl)amino]-piperidin-1-yl)-3-oxopropionitrile in therapeutically effective amounts that can be given in daily or twice daily doses to patients in need. These amounts range from about 0.1% to about 5.0% (w/v), more preferably, from about 0.1% to about 3.0%, more preferably still, from about 0.5% to about 2.3%, and, most preferably, about 2.0% (w/v). Among other excipients which enhance the stability of these formulations include aldehyde scavengers, such as glycerine and propylene glycol, and antioxidants, such as butyl hydroxyanisole (BHA), butyl hydroxytoluene (BHT), propyl gallate, ascorbic acid (Vitamin C), polyphenols, tocopherols (Vitamin E), and their derivatives. Preferably, PEG-based ointment formulations containing at least 30% polyethylene glycol, tofacifinib and one or more penetration enhancers and additional pharmaceutically acceptable excipients forming a stable formulation such that the level of total degradants is no more than 7% when the product is stored at 40° C. for 4 weeks. More preferably, addition of aldehyde scavengers and antioxidants into formulations Ointment 1 (A) and Ointment 2 (C) stabilized the polyethylene glycol containing ointment formulations such that the level of total degradants is no more than 5% when the product is stored at 40° C. for 4 weeks.

Stability of tofacitinib in the presence of polyethylene glycol (PEG): poor stability
Compound: C[C@@H]1CCN(C(=O)CC#N)C[C@@H]1N(C)c1ncnc2[nH]ccc12 [tofacitinib, 3-((3R,4R)-4-Methyl-3-[methyl-(7H-pyrrolo[2,3-d]pyrimidin-4-yl)-amino]-piperidin-1-yl)-3-oxopropionitrile]
